Data published in article PMC11845477, “Exploring the principles behind antibiotics with limited resistance” (Nature Communications, 2025).

Key:
Experiment in all cases: microbe, parasite or virus in culture
[1] = test system: T1, Klebsiella pneumoniae ATCC 10031; set-up: CLSI broth microdilution MIC; OD600 < 0.05 counted as complete growth inhibition; conditions: Klebsiella pneumoniae, ATCC10031, 18 h; read-out: MIC of ancestor
T1 construct: ATCC 10031
Experimental: (§1) A final concentration of 5 × 10^5 bacterial cells per mL were inoculated into each well containing 60 µL MHB medium. Bacterial cultures were incubated at 37 °C with continuous shaking (Infors shaker, 900 rpm with 3 mm throw) for 18 hours (2 replicates from each). Cell growth was monitored by measuring the optical density (OD600 values, using Biotek Synergy microplate reader). MIC was defined as the antibiotic concentration of complete growth inhibition (i.e., OD600 < 0.05). Relative MIC was calculated as follows:1 relativeMIC=MICevolved/MICancestor This study focused on multiple bacterial strains, as follows. For the FoR and ALE experiments, 2 strains per species were chosen: E. coli ATCC 25922, K. pneumoniae ATCC 10031, A. baumannii ATCC 17978, and P. aeruginosa ATCC BAA-3107 as sensitive (SEN) strains, and E. coli NCTC13846, K. pneumoniae ATCC 700603, A. baumannii ATCC BAA-1605 and P. aeruginosa LESB58 as multi-drug resistant (MDR) strains. Functional metagenomic screens were performed with E. coli ATCC 25922 and K. pneumoniae ATCC 10031 strains. To determine the dose-kill properties of the different antibiotics, an E. coli strain (ATCC 25922) expressing a yellow fluorescent protein (pZS2R, YFP, CHL^R) and a red fluorescent protein (pZS2R, mCherry, CHL^R) was used.

[2] = test system: T2, Acinetobacter baumannii ATCC 17978; set-up: CLSI broth microdilution MIC; OD600 < 0.05 counted as complete growth inhibition; conditions: Acinetobacter baumannii, ATCC17978, 18 h; read-out: MIC of ancestor
T2 construct: ATCC 17978
Experimental: as §1

[3] = test system: T3, Acinetobacter baumannii ATCC BAA 1605; set-up: CLSI broth microdilution MIC; OD600 < 0.05 counted as complete growth inhibition; conditions: Acinetobacter baumannii, BAA1605, 18 h; read-out: MIC of ancestor
T3 construct: ATCC BAA-1605
Experimental: as §1

[4] = test system: T4, Escherichia coli ATCC 25922; set-up: CLSI broth microdilution MIC; OD600 < 0.05 counted as complete growth inhibition; conditions: Escherichia coli, ATCC25922, 18 h; read-out: MIC of ancestor
T4 construct: ATCC 25922
Experimental: as §1

[5] = test system: T5, Klebsiella pneumoniae ATCC 700603; set-up: CLSI broth microdilution MIC; OD600 < 0.05 counted as complete growth inhibition; conditions: Klebsiella pneumoniae, ATCC700603, 18 h; read-out: MIC of ancestor
T5 construct: ATCC 700603
Experimental: as §1

[6] = test system: T6, Escherichia coli NCTC 13846; set-up: CLSI broth microdilution MIC; OD600 < 0.05 counted as complete growth inhibition; conditions: Escherichia coli, NCTC13846, 18 h; read-out: MIC of ancestor
T6 construct: NCTC 13846
Experimental: as §1

E. coli NCTC13846 (MDR) = test system: T7, E. coli NCTC13846 (MDR); set-up: Serial broth microdilution MIC (CLSI), OD600 below 0.05, 384-well plates, MHB medium; conditions: Escherichia coli, NCTC13846, 18 h; ancestor strain before evolution
T7 construct: NCTC 13846
Experimental: as §1

[7] = test system: T8, K. pneumoniae ATCC 700603 (MDR); set-up: Serial broth microdilution MIC (CLSI), OD600 below 0.05, 384-well plates, MHB medium; conditions: Klebsiella pneumoniae, ATCC700603, 18 h; ancestor strain before evolution
T8 construct: ATCC 700603
Experimental: as §1

E. coli ATCC 25922 = test system: E. coli ATCC 25922; set-up: Serial broth microdilution MIC (CLSI), OD600 below 0.05, 384-well plates, MHB medium; conditions: Escherichia coli, ATCC25922, 18 h; ancestor strain before evolution
Experimental: as §1

K. pneumoniae ATCC 10031 = test system: T9, K. pneumoniae ATCC 10031; set-up: Serial broth microdilution MIC (CLSI), OD600 below 0.05, 384-well plates, MHB medium; conditions: Klebsiella pneumoniae, ATCC10031, 18 h; ancestor strain before evolution
T9 construct: ATCC 10031
Experimental: as §1

A. baumannii ATCC 17978 = test system: T10, A. baumannii ATCC 17978; set-up: Serial broth microdilution MIC (CLSI), OD600 below 0.05, 384-well plates, MHB medium; conditions: Acinetobacter baumannii, ATCC17978, 18 h; ancestor strain before evolution
T10 construct: ATCC 17978
Experimental: as §1

CC(C)c1ccc(Cn2ccc3c4c(N)nc(NC5CC5)nc4ccc32)cc1 [SCH, SCH79797]
MIC [1]: 4 mg/L | MIC [2]: 4 mg/L | MIC [3]: 4 mg/L | MIC [4]: 4 mg/L

C[C@@H](O)[C@H]1C(=O)N2C(C(=O)O)=C(S[C@H]3CC[S@@+]([O-])C3)S[C@H]12 [SUO, sulopenem]
MIC [1]: 0.0312 mg/L | MIC [5]: 0.5 mg/L | MIC [6]: 0.0312 mg/L | MIC [2]: 1 mg/L | MIC [4]: 0.0312 mg/L

C[C@@H](O)[C@H]1C(=O)N2C(C(=O)O)=C(S[C@H]3CC[S@@+]([O-])C3)S[C@H]12 [sulopenem]
MIC (E. coli NCTC13846 (MDR)): 0.0312 mg/L | MIC [7]: 0.5 mg/L | MIC (E. coli ATCC 25922): 0.0312 mg/L | MIC (K. pneumoniae ATCC 10031): 0.0312 mg/L | MIC (A. baumannii ATCC 17978): 1 mg/L
